Data set [1] relates to NIH 3T3 cell-laden bilayer constructs (cell-generated forces, actin polymerization). Briefly: Cytochalasin D treatment of cell-laden bilayer constructs. The class given is cell-based. The text has this:
To accomplish bilayer printing, two syringes were loaded into the 3D printer: the first contained only reconstituted OMA microgels (cell-free bioink); the second contained the cell-laden bioink. For bilayer rectangles, a 25 mm×25 mm×0.2 mm square was printed with the cell-free bioink. Three cell-laden rectangles measuring 18 mm×4 mm×0.6 mm were then printed directly on top of the cell-free square, spaced 4 mm apart. After crosslinking constructs with UV light, the cell-free layer was cut with a razor blade to match the geometry of the cell-laden rectangles, forming bilayer rectangles. Dead controls were generated by incubating cells in acetone for 30 minutes before forming the cell-laden bioink.
To further illustrate the role of cell-generated forces in the observed spatiotemporal changes, the effect of Cytochalasin D, a known inhibitor of actin polymerization, was studied. Cytochalasin D was weighed and dissolved in sterile dimethyl sulfoxide (DMSO) at a concentration of 5 mM and stored at 4° C. Bilayer rectangles were printed and cultured in culture media supplemented with 0.1% v/v Cytochalasin D, resulting in a final Cytochalasin D concentration of 5 μM. Half of the media was replaced every day, with fresh Cytochalasin D added at 0.1% v/v each time. To ensure that any change in behavior is being caused by Cytochalasin D and not DMSO, four bilayer rectangles were cultured in culture media with 0.1% v/v DMSO. These media conditions were also compared to bilayer rectangles cultured in normal culture media.
After culture duration was complete, samples were fixed overnight in 10% neutral buffered formalin at room temperature. Samples were then dehydrated through one-hour incubations in 70% ethanol, 95% ethanol, 100% ethanol, 1:1 mixture of ethanol and xylenes, and two separate 100% xylenes. Samples were then submerged in molten paraffin for at least 24 hours before being embedded in paraffin blocks. 5-μm sections were obtained from blocks using a microtome and mounted on microscope slides. Hematoxilyn and eosin (H&E) sections were stained with hematoxilyn for 2 minutes followed by counterstaining with eosin for 30 seconds. Safrananin O and fast green sections were stained with 0.1% Safranin O for 5 minutes followed by counterstaining with 0.05% fast green for 1 minute. Alcian blue and nuclear fast red sections were stained with alcian blue ([…]) for 30 minutes followed by counterstaining with nuclear fast red for 5 minutes.
Dissection microscope images were used to measure bending angle as described in FIG. 72. Briefly, a circle with crosshairs was superimposed on each image using Microsoft Powerpoint. […] Using this method, a construct that has bent into a half circle is measured as 180 degrees, while a construct whose ends are touching is measured as 360 degrees. […]

The next data set has as its system cells. Briefly: Cytocompatibility of UV absorber HMAP (cell viability). Particulars: all the tested concentrations. The format is cell-based.

Regarding `C=C1[C@@H](C)[C@H]2[C@H](Cc3ccccc3)NC(=O)[C@]23[C@H](OC(C)=O)/C=C/[C@@](C)(O)C(=O)[C@@H](C)C/C=C/[C@H]3[C@@H]1O` [Cytochalasin D], the “macroscopic shape change of bilayer constructs” value in data set [1] (5 μM in growth medium, over duration of culture (14 days)) was “no macroscopic changes in shape”. Also, in data set [1] (5 μM, day 14), the “cell death (live/dead)” value is “no sign of cell death”, the “cell morphology (live/dead images)” value was “more rounded” and the “fibrous border formation (H&E histology)” value was “unable to form this fibrous border”.
Take `CC(=O)c1ccc(O)c(C)c1` [HMAP, 4′-hydroxy-3′-methylacetophenone]: the cell viability in the data set on cells was over 90%.

One may read the cell viability as the share of living cells, or the viability signal relative to a control.

The values are drawn from patent publication US20250186656A1, “SHAPE MORPHING HYDROGEL ACTUATORS AND CONSTRUCTS” (Case Western Reserve University, priority 2022, published 2025).
